One substance from US20260091015A1, “TREATING IRON DEFICIENCY WITH FERRIC CARBOXYMALTOSE” (PHARMACOSMOS HOLDING A/S, priority 2018, published 2026) can be followed below.

For series [1], the system named is PTH. The experiment in a line: Intact PTH sandwich immunoassay, trials IDA-04/IDA-05. The class given is in vivo, human. To be noted: IDA-04 and IDA-05 combined. An excerpt:
The term “serum parathyroid hormone (PTH)” as used herein refers to the level of serum parathyroid hormone in blood serum as measured using a two-site sandwich immunoassay using direct chemiluminometric technology, which used constant amounts of two anti-human PTH antibodies. PTH, produced by the parathyroid gland, is the major circulating factor regulating extracellular calcium concentration. Abnormally low ionized calcium concentrations trigger the secretion of PTH. The PTH molecules bind to type 1 PTH receptors in target tissues and initiate a sequence of reactions that results in an increase in extracellular calcium concentrations. PTH stimulates osteoclastic bone resorption resulting in the release of calcium from bone. […]
The following safety laboratory assessments were analysed: • S-phosphate: inorganic phosphorous forms an ammonium phosphomolybdate complex having the formula (NH4)3[PO4](MoO3)12 with ammonium molybdate in the presence of sulfuric acid. The complex was determined photometrically in the ultraviolet region (340 nm) of the spectrum using the Roche Modular and Cobas Analyzer. • iFGF23 and cFGF23: the human intact FGF23 was measured by the 2nd generation Elisa kit manufactured by Immonotropics, Inc, San Clemente, CA. […] The human C-terminal FGF23 was measured by the Elisa kit manufactured by Immonotropics, Inc, San Clemente, CA. […]

Series [2] concerns biochemical bone/muscle markers. Nature of the series: Biochemical bone/muscle markers (PINP, CTx, bone specific and total alkaline phosphatase), trials IDA-04/IDA-05. The series is classed as in vivo, human. The text has this: The term “serum Bone Specific Alkaline Phosphatase” as used herein refers to the level of Bone specific Alkaline Phosphatase in blood serum as measured using the Beckman-Coulter Ostase assay which is a one-step immunoenzymatic chemiluminescence assay using a mouse monoclonal antibody specific to Bone Specific Alkaline Phosphatase (BAP).
The term “serum Alkaline Phosphatase” as used herein refers to the level of Alkaline Phosphatase in blood serum as measured enzymatically using a Roche Modular Analyzer. In the presence of magnesium and zinc ions, p-nitrophenyl phosphate is cleaved by phosphatase into phosphate and p-nitrophenol. The p-nitrophenol released is proportional to the Alkaline Phosphatase activity and is measured photometrically.
The term “serum N-terminal Propeptide of Type I Collagen (PINP)” as used herein refers to the level of PINP in blood serum as measured using a sandwich principle, electrochemiluminescence immunoassay (ECLIA) on a Cobas e601 Analyzer. During the first incubation, PINP in the sample and a biotinylated monoclonal PINP-specific antibody are incubated together. During the second incubation, streptavidin-coated labelled microparticles and a monoclonal PINP-specific antibody labelled with ruthenium complex (Trs (2,2-bipyridyl)ruthenium (II)-complex (Ru(bpy)23+)) are added to form a sandwich complex, which binds to the solid phase via interaction of biotin and streptavidin. The reaction mixture is aspirated into the measuring cell where the microparticles are magnetically captured onto the surface of the electrode. A voltage is applied to the electrode, which induces chemiluminescent emission, which is measured by a photomultiplier. Results are determined via a calibration curve, which is instrument-specifically generated by a 2-point calibration and a master curve provided via the reagent barcode.
The term “serum Carboxy-terminal Collagen Crosslinks (CTx)” as used herein refers to the level of CTx in blood serum as measured using a sandwich principle, electrochemiluminescence immunoassay (ECLIA) on a Cobas e601 Analyzer. During the first incubation, 50 μL of sample and biotinylated monoclonal anti-beta-CrossLaps antibodies are incubated together. During the second incubation, streptavidin-coated labelled microparticles and a monoclonal P-beta-CrossLaps-specific antibody labelled with ruthenium complex are added to form a sandwich complex, which binds to the solid phase via interaction of biotin and streptavidin. The reaction mixture is aspirated into the measuring cell where the microparticles are magnetically captured onto the surface of the electrode. Unbound substances are then removed with ProCell. A voltage is applied to the electrode, which induces chemiluminescent emission, which is measured by a photomultiplier. Results are determined via a calibration curve, which is instrument-specifically generated by a 2-point calibration and a master curve provided via the reagent barcode.
The trial was a randomized, open-label, comparative trial. Subjects with Iron Deficiency Anaemia (IDA) were randomized 1:1 to one treatment course of one of the following treatments: • Group A: iron isomaltoside 1000 (Monofer®, Pharmacosmos, Holbok, Denmark, termed iron isomaltoside in the following), 1000 mg at baseline • Group B: ferric carboxymaltose (Ferinject®/Injectafer®, Vifor Inc, Switzerland), 750 mg at baseline and day 7, cumulative dose: 1500 mg […]

Regarding ferric carboxymaltose [FCM], in series [1], the PTH entry is recorded as “increase”. Further, in series [2] (compared to IMM), the “Alkaline Phosphatase” value was “statistically significant increase”, the “Bone Specific Alkaline Phosphatase” value is reported as “statistically significant increase”, the CTx values entry was “statistically significant lower” and the “N-terminal PINP values” is on record as “statistically significant lower”. Also, the bone turnover result in series [2] (treatment according to current practice) is on record as “increased”.
